# Measured values reported in PMC5429698, “Biochemical analysis of leishmanial and human GDP-Mannose Pyrophosphorylases and selection of inhibitors as new leads” (Scientific Reports, 2017).
# “And” between values parts separate entries of the source, which are not always exact repeats. Equal values may be shown once. Read-outs that look alike come from different tables or passages of the source.
# Key:
# T. brucei GDP-MP = test system: T. brucei GDP-MP; design: method as in PMID 19919534; details: cited from earlier work
# LmGDP-MP = LmGDP-MP (Leishmania mexicana, UniProt E9AW11); assay: biochemical; type: biochemical; details: for Km: read-out: Km (µM) ± SD of LmGDP-MP
# Sequence of LmGDP-MP (E9AW11 entry or part of it): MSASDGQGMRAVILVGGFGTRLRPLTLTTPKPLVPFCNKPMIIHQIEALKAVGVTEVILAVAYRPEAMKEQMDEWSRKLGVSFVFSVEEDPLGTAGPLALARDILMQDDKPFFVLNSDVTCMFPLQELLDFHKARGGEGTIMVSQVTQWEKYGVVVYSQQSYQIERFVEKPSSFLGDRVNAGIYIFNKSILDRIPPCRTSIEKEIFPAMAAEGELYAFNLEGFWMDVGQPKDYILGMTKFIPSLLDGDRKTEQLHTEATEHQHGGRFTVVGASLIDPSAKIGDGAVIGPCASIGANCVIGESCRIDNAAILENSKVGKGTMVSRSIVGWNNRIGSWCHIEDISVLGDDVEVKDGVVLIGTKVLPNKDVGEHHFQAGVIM
# Procedure: (§1) GDP-MP catalyzes the following reaction: Man‐1‐P+GTP→GDP−Mannose+Pyrophosphate The reaction media were buffered at pH optima and contained optimal concentrations of Man-1-P, GTP, GDP-MP and Mg^2+ determined for each purified GDP-MP (Fig. 2d), supplemented with DTT (1 mM). Inorganic pyrophosphatase, which hydrolyses the inorganic pyrophosphates generated by the GDP-MPs in inorganic phosphates, was added at 0.1 U/ml (Sigma-Aldrich). Inorganic pyrophosphatase was added in excess to the reaction medium in order to minimize the probability that the putative inhibitors of GDP-MPs interfere with this enzyme. The reaction was initiated by the addition of GDP-MP, and was stopped after adding 100 µl of revelation buffer containing malachite green (0.03% w/v), ammonium molybdate (0.2% w/v) and Triton X-100 (0.05% v/v) in HCl (0.7 M) for 5 min at the optimal temperature. The quantity of inorganic phosphate generated, representing GDP-MP activity, was determined by measuring OD650nm (Lab systems Multiskan MS). The molar extinction coefficient ε of the end product detected was determined by measuring OD650nm with a range of inorganic phosphate concentrations diluted in the revelation buffer and was calculated at 27207 M^−1 cm^−1 (Supplementary Fig. S2). The kinetic constants K m, V m and k cat were determined by non linear regression using GraphPad Prism 6.0.
# (§2) Enzyme activity was measured as described above in the presence of 100 µM of compounds and the percentage of inhibition was calculated in reference to untreated enzyme. As a control, compounds were evaluated in parallel in the same conditions on inorganic pyrophosphatase alone in order to discard false-positives. […] Furthermore, no effect was observed on the activity of the three purified GDP-MPs with 1% DMSO, corresponding to the maximal solvent concentration used at 100 µM of compound. Compounds presenting a minimum of 50% inhibition on a leishmanial GDP-MP were subsequently selected to determine their type of inhibition and their K i values. Inhibition data were fitted to competitive, non-competitive or uncompetitive models of enzyme inhibition by non linear least squares regression analysis using GraphPad Prism 6.0.
# hGDP-MP = biological target: T1, hGDP-MP (Homo sapiens, UniProt Q9Y5P6); assay: GDP-MP enzymatic assay (malachite green) on purified hGDP-MP; type: biochemical
# T1 construct: made in house; host or cells: E. coli BL21(DE3), co-transformed with chaperone plasmid pG-KJE3
# T1 sequence (Q9Y5P6 whole entry): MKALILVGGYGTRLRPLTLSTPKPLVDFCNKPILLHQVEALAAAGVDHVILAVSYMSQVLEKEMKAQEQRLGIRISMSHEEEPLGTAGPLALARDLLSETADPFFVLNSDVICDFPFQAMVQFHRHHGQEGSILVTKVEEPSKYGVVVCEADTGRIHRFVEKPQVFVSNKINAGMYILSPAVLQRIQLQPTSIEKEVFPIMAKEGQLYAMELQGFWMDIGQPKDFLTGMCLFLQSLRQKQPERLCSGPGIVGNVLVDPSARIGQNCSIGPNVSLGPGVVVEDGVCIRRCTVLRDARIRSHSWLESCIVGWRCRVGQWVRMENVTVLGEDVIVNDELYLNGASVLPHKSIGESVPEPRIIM
# Procedure: as §1, with “The reaction was initiated by the addition of GDP-MP, and was stopped after adding 100 µl of revelation buffer containing malachite green (0.03% w/v), ammonium molybdate (0.2% w/v) and Triton X-100 (0.05% v/v) in HCl (0.7 M) for 5 min at the optimal temperature.” left out
# (§3) Enzyme activity was measured as described above in the presence of 100 µM of compounds and the percentage of inhibition was calculated in reference to untreated enzyme. […]
# [1] = test system: L. donovani intramacrophage amastigotes in infected RAW.264.7 macrophages; assay: Antileishmanial evaluation on intramacrophage amastigotes, RAW264.7 host; type: cell-based; details: for IC50: 48 h treatment, read-out: IC50 (µM) ± SD L. donovani infected RAW.264.7 macrophages; for Selectivity index (CC50/IC50) L. donovani RAW264.7 macrophages: CC50 RAW264.7 / IC50 infected RAW264.7
# Procedure: (§4) Concerning the evaluation on intramacrophage amastigotes, RAW 264.7 macrophages (from ATCC) and bone marrow derived macrophages (BMDM) were plated in 96-well microplates at a density of 2 × 10^4 cells per well and incubated for 24 h at 37 °C with 5% CO2 for RAW264.7 cells or at 37 °C with 7% CO2 for BMDM. Axenic amastigotes were differenciated as described above, centrifuged at 2,000 g for 10 min, resuspended in DMEM complete medium, and added to each well to reach a 16:1 parasite to macrophage ratio. After 24 h of infection at 37 °C with 5% CO2 for RAW264.7 cells or at 37 °C with 7% CO2 for BMDM, extracellular parasites were removed, and DMEM complete medium (100 µl) containing two fold serial dilutions of the compounds from a maximal concentration of 100 µM was added to each well. After 48 h of treatment, the medium was removed and replaced by DirectPCR Lysis Reagent (100 µl; Euromedex) before 3 freeze-thaw cycles at room temperature, addition of 50 µg/ml proteinase K, and a final incubation at 55 °C overnight to allow cell lysis. 10 µl of each cell extract was then added to 40 µl of DirectPCR Lysis reagent containing Sybr Green I (0.05%; Invitrogen). DNA fluorescence was monitored using Mastercycler® realplex (Eppendorf). The activity of the compounds was expressed as IC50. Miltefosine was used as the reference drug.
# Cytotoxicity (resazurin) [2] = type: cell-based, Balb/c mice; details: Balb/c, mouse, bone marrow derived macrophages (BMDM); 48 h incubation; read-out: Cytotoxicity CC50 (µM) ± SD BMDM
# Procedure: (§5) Cells were plated in 96-well microplates at a density of 2 × 10^4 cells per well. After an incubation of 24 h at 37 °C with 5% CO2 for RAW264.7 cells or at 37 °C with 7% CO2 for BMDM, the medium was removed in each well, and 100 µl of DMEM complete medium containing two fold serial dilutions of the compounds was added to each well. […] Cell viability was then monitored as described above.
# Cytotoxicity (resazurin) [3] = type: cell-based; details: mouse, RAW264.7 macrophages; 48 h incubation; read-out: Cytotoxicity CC50 (µM) ± SD RAW264.7 macrophages
# Procedure: as §5
# [4] = test system: L. mexicana intramacrophage amastigotes in infected RAW.264.7 macrophages; assay: microbe, parasite or virus in culture; type: cell-based; details: for IC50: 48 h treatment, read-out: IC50 (µM) ± SD L. mexicana infected RAW.264.7 macrophages
# Procedure: as §4
# [5] = test system: L. mexicana intramacrophage amastigotes in infected BMDM; assay: microbe, parasite or virus in culture; type: cell-based; details: for IC50: Leishmania mexicana, BMDM, 48 h, 48 h treatment, read-out: IC50 (µM) ± SD L. mexicana infected BMDM
# Procedure: as §4
# [6] = test system: L. mexicana axenic amastigotes; assay: Antileishmanial evaluation on axenic amastigotes (resazurin); type: cell-based
# Procedure: (§6) The evaluations of activity on axenic and intramacrophage amastigotes were adapted from the protocols previously described. Briefly, for the evaluation on axenic amastigotes, two fold serial dilutions of the compounds from a maximal concentration of 100 µM were performed in 100 µl of complete medium (see above) in 96-well microplates. Axenic amastigotes were then added to each well at a density of 10^6/ml in a 200 µl final volume. After 72 h of treatment at 37 °C for L. donovani or at 32 °C for L. mexicana with 5% CO2, 20 µl of resazurin (450 µM) was added to each well and further incubated in the dark for 24 h at 37 °C for L. donovani or at 32 °C for L. mexicana with 5% CO2. In living cells, resazurin is reduced in resorufin and this conversion is monitored by measuring OD570nm (resorufin) and OD600nm (resazurin; Lab systems Multiskan MS). The activity of the compounds was expressed as IC50. Miltefosine was used as the reference drug.
# [7] = test system: L. donovani axenic amastigotes; assay: as above; type: cell-based; details: 72 h treatment, 37 °C, read-out: IC50 (µM) ± SD L. donovani axenic amastigotes
# Procedure: as §6
# [8] = test system: L. donovani intramacrophage amastigotes in infected BMDM; assay: Antileishmanial evaluation on intramacrophage amastigotes, BMDM host; type: cell-based; details: for Selectivity index (CC50/IC50) L. donovani BMDM: CC50 BMDM / IC50 infected BMDM; for IC50: Leishmania donovani, BMDM, 48 h treatment, read-out: IC50 (µM) ± SD L. donovani infected BMDM
# Procedure: as §4
# [9] = test system: inorganic pyrophosphatase; assay: Control for false positives on inorganic pyrophosphatase alone; type: biochemical; details: compound at 100 µM, same conditions as the GDP-MP assay
# Procedure: as §2
# [10] = test system: leishmanial GDP-MP (LdGDP-MP and/or LmGDP-MP); assay: Screen of the 100 compound library at 100 µM on purified leishmanial GDP-MPs; type: biochemical, Leishmania; details: compound at 100 µM
# Procedure: as §1, §2
# L. major GDP-MP = test system: L. major GDP-MP; design: method as in PMID 20160053; details: high throughput screening; cited from earlier work
# LdGDP-MP = LdGDP-MP (Leishmania donovani, UniProt E9BG32); assay: biochemical; details: Man-1-P 10-100 µM, GTP 100 µM
# Sequence of LdGDP-MP (E9BG32 entry or part of it): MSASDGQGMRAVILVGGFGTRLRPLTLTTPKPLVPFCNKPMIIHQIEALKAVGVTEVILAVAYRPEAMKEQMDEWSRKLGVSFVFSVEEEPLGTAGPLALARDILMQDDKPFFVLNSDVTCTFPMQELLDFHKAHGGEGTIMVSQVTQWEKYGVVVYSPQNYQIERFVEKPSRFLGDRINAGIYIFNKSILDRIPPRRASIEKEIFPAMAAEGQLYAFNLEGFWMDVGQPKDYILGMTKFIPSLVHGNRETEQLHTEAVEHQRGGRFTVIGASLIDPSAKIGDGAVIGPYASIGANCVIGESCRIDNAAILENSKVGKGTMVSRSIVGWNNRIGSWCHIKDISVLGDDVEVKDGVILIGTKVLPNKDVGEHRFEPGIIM
# Procedure: as §1, with “The reaction was initiated by the addition of GDP-MP, and was stopped after adding 100 µl of revelation buffer containing malachite green (0.03% w/v), ammonium molybdate (0.2% w/v) and Triton X-100 (0.05% v/v) in HCl (0.7 M) for 5 min at the optimal temperature.” left out
# as §3
# [11] = test system: L. major intramacrophage amastigotes; design: method as in PMID 20160053; details: cited from earlier work
# [12] = Leishmania donovani, RAW264.7, 48 h
# [13] = Leishmania mexicana, RAW264.7, 48 h
# [14] = CC50 RAW264.7 / IC50 infected RAW264.7
# [15] = Leishmania mexicana, 72 h, 72 h treatment, 32 °C, read-out: IC50 (µM) ± SD L. mexicana axenic amastigotes
SMILES,"IC50 [1, 12] [µM]",CC50 at 48 h (Cytotoxicity (resazurin) [2]) [µM],CC50 at 48 h (Cytotoxicity (resazurin) [3]) [µM],"IC50 [4, 13] [µM]",IC50 [5] [µM],"IC50 ([7]; Leishmania donovani, 72 h) [µM]",Selectivity index (CC50/IC50) L. donovani BMDM [8],IC50 [8] [µM],inhibition of inorganic pyrophosphatase [9] [%],enzyme inhibition on a leishmanial GDP-MP [10],"Selectivity index (CC50/IC50) L. mexicana RAW264.7 macrophages [4, 14]",Selectivity index (CC50/IC50) L. mexicana BMDM ([5]; CC50 BMDM / IC50 infected BMDM),"IC50 [6, 15] [µM]",Ki (LmGDP-MP) [µM],Selectivity index (CC50/IC50) L. donovani RAW264.7 macrophages [1],further results
Nc1ncnc2c1ncn2[C@@H]1O[C@H](COP(=O)(O)OP(=O)(O)OP(=O)(O)O)[C@@H](O)[C@H]1O [ATP],–,–,–,–,–,–,–,–,–,–,–,–,–,–,–,Km (T. brucei GDP-MP): 290 µM
Nc1nc2c(ncn2[C@@H]2O[C@H](COP(=O)(O)OP(=O)(O)OP(=O)(O)O)[C@@H](O)[C@H]2O)c(=O)[nH]1 [GTP],–,–,–,–,–,–,–,–,–,–,–,–,–,–,–,Km (LmGDP-MP; other substrate held constant at 80 µM): 7.67 ± 2.28 µM
O=c1[nH]cnc2c1ncn2[C@@H]1O[C@H](COP(=O)(O)OP(=O)(O)OP(=O)(O)O)[C@@H](O)[C@H]1O [ITP],–,–,–,–,–,–,–,–,–,–,–,–,–,–,–,hGDP-MP activity with substrate analogue compared to GTP (hGDP-MP; NTP at 100 µM): 22–24% and 24%; LmGDP-MP activity with substrate analogue compared to GTP (LmGDP-MP; NTP at 100 µM): 22–24%
"O=P(O)(O)OC1O[C@H](CO)[C@@H](O)[C@H](O)[C@@H]1O (some centres unmarked) [Man-1-P, mannose-1-phosphate]",–,–,–,–,–,–,–,–,–,–,–,–,–,–,–,Km (LmGDP-MP): 11.6 ± 1.76 µM
"CCCCCCCCCCCCCCCCOP(=O)([O-])OCC[N+](C)(C)C [Miltefosine, reference compound]",1.83 ± 0.22,> 25,> 25,52.6 ± 4.98,51.4 ± 5.34,2.08 ± 0.24,>30.1,0.83 ± 0.12,–,–,–,–,–,–,–,"Selectivity index (CC50/IC50) L. mexicana RAW264.7 macrophages [4]: >0.5; Selectivity index (CC50/IC50) L. mexicana BMDM [5]: >0.5; IC50 ([6]; Leishmania mexicana, 72 h, read-out: IC50 (µM) ± SD L. mexicana axenic amastigotes, 72 h treatment, 32 °C): 23.7 ± 2.81 µM"
O=C(NCc1ccccc1)c1ccc2nc(-c3ccccc3)c(-c3ccccc3)nc2c1 [compound 46],> 100,13.1 ± 1.67,> 100,11.7 ± 1.13,15.7 ± 3.48,> 100,1.0,12.5 ± 0.93,< 5,above 50%,>8.5,0.8,7.69 ± 0.56,25.6 ± 3.46,–,–
Nc1nc2c(ncn2C2OC(Cn3cc(-c4ccc(-c5ccccc5)cc4)nn3)C(O)C2O)c(=O)[nH]1 (centres unmarked) [compound 83],51.9 ± 7.49,23.8 ± 1.98,> 100,45.4 ± 6.21,25.9 ± 5.37,> 100,0.9,27.1 ± 2.04,< 5,above 50%,>2.2,0.9,30.6 ± 3.29,25.4 ± 4.23,>1.9,–
Clc1ccc2nc(COCCn3cc(-c4ccc(-c5ccccc5)cc4)nn3)ccc2c1 [compound 92],41.6 ± 14,77.5 ± 5.34,> 100,< 10,79.3 ± 9.76,> 100,0.9,82.5 ± 7.61,< 5,above 50%,>12.1,1.0,43.1 ± 3.42,16 ± 3.51,>2.4,IC50 [4]: 8.25 ± 1.07 µM
"CC(C)(C)c1ccc(CN2CCN(c3ccnc4cc(Cl)ccc34)CC2)cc1 [compound 100, reference compound]",20 to 27.5,51.4 ± 3.45,62.1 ± 7.39,20 to 27.5,12.1 ± 1.27,30 to 50,4.2,12.2 ± 4.74,< 5,above 50%,2.3,4.3,30 to 50,–,3.2,"IC50 (L. major GDP-MP): 580 nM; IC50 [1]: 19.5 ± 4.53 µM; Ki (hGDP-MP; Man-1-P 10-100 µM, GTP 100 µM): 19.7 µM and ~20 µM; Ki (LdGDP-MP): 61.8 ± 16.3 µM; IC50 [4]: 27.5 ± 2.23 µM; IC50 ([6]; 72 h treatment, 32 °C, read-out: IC50 (µM) ± SD L. mexicana axenic amastigotes): 49.25 ± 0.26 µM; IC50 [7]: 30.7 ± 6.62 µM; IC50 [11]: 21.9 µM"
